pEC50: −log10 of the molar value. Like-named read-outs stand apart in the source and are kept apart here.
Key:
[1] = tested on: passive cutaneous anaphylaxis (PCA); experiment: Activity of suppressing passive cutaneous anaphylaxis (PCA); assay type: in vivo, Male Wistar rats; details: Rattus norvegicus, po, 1 h, 10 mg/kg-po, 1 hour before antigen challenge; read-out: % suppression of rat PCA
Experimental: Test compounds were examined on their antiallergic activities. […] After 48 hours, 1.0 ml of 0.5 % Evans Blue saline solution containing DNP.BSA (1 mg in protein) was injected through the tail vein to induce allergic reaction. After 30 minutes, the rats were sacrificed by bleeding and the skin of back where dye was leaked out was flayed and put it into 20 ml test tube with ground stopper. Thereto was added 1.0 ml of 1N KOH aqueous solution and then it was allowed to stand at 37° C. in incubator overnight for lysing. To this solution was added 8.3 ml of a mixture of acetone and 0.6N phosphoric acid (13:5) and the mixture was mixed well and then was filtered to remove the insoluble materials.
The test compounds were administered orally 1 hour before the antigen challenge. Suppression rate was expressed by percentage to the value in control where 0.5% aqueous methylcellulose solution was orally administered.

[2] = tested on: extracted ileum (histamine contraction); experiment: Antihistaminic activity: suppression of histamine-induced contraction of extracted ileum; parameters: species or system Female Hartley guinea pig; details: histamine 3×10^-7 M; guinea pig ileum; 50% suppression of contraction; read-out: anti-His in extracted ileum EC50
Experimental: Female Hartley guinea pig (weighing 500 to 650 g) were sacrificed and the ileum (length of about 10 to 25 cm) was extracted from the ileocecum to prepare a specimen (length of 3 cm). […] After allowing to stand for 60 minutes to make the specimen stable, a histamine (3×10^-7 M) was applied to the specimen at single application. Contraction of the specimen was determined and recorded using isotonic transducer. After repeating application of a histamine to make the contraction constant, a diluted solution of the test compound was applied. Three minutes after the application, a histamine was then added and an activity of suppressing contraction was examined.

male ICR mice = experiment: Toxicity Test (mouse acute toxicity, minimum lethal dose); assay type: in vivo; details: po, observed for 24 hours, head prints (10 mg/kg-po)
Source text: The test compounds were orally administered to male ICR mice (weighing to 30 g) after fasting overnight. […] The results were expressed by minimum lethal dose. Toxicity of any compounds of the present invention were weaker than that of ketotifen which was a reference compound.

[3] = tested on: mouse biphasic allergic dermal reaction; experiment: Mouse Biphasic Allergic Dermal Reaction; assay type: in vivo, Female Balb/c mice; details: for inhibition in vivo at 0.1 mg/kg / inhibition in vivo at 1 mg/kg: Mus musculus, oral; for suppression of the late allergic reaction (in words): edema after 24 hours
Experimental: Female Balb/c mice (weighing 18 to 25 g) were subjected to passive sensitization by intravenous administration of 1 ml of anti-DNP monoclonal IgE antibody showing 1:1024 of antibody titer. 24 hours after the sensitization, 25 μl of 0.15% dinitrofluorobenzene (DNFB) were applied to both sides of right and left auricles of mouse for inducing allergic reactions. Thickness of auricles were measured using Dial Thickness Gauge before the challenge with DNFB, and 1 and 24 hours after the challenge. And then, increase in thickness of auricles at 1 hour after the challenge (edema caused by immediate allergic reaction) and that at 24 hours after the challenge (edema caused by late allergic reaction) were calculated against the thickness of auricles before the challenge with DNFB, respectively.
Suppression rate was expressed by relative ratio (%) to the value in control in which a solvent was administered.
Test compounds, diphenhydramine which is a existing classical antihistamic drug, amlexanox which is an antiallergic drug and dexamethasone which is a steroidal drug were administered orally (partly intraperitoneally) once before antigen challenge.
The above test was performed by using a mouse biphasic allergic dermal reaction model which was a new model [see, Sakurai T, Inagaki, N. and Nagai, H Life Sci., 54, PL291-295 (1994)]. In this model, the immediate allergic reaction was induced by mediator release from mast cell at 1 hour after the challenge, and the late allergic reaction with inflammatory cells such as eosinophil (edema after 24 hours) was induced after 24 hours from the challenge.

[4] = 1 h, read-out: immediate edema (1 hr) suppression (%)
[5] = 24 h, read-out: late edema (24 hr) suppression (%)

| Structure (SMILES) | inhibition in vivo at 10 mg/kg [1] [%] | pEC50 [2] | mouse acute toxicity (lethal dose) (male ICR mice) [mg/kg] | inhibition in vivo at 0.1 mg/kg [3, 4] [%] | inhibition in vivo at 1 mg/kg [3, 4] [%] | inhibition in vivo at 0.1 mg/kg [3, 5] [%] | inhibition in vivo at 1 mg/kg [3, 5] [%] | suppression of the late allergic reaction (in words) [3] |
| --- | --- | --- | --- | --- | --- | --- | --- | --- |
| O=S(=O)(CCCCCCN1CCN(C(c2ccccc2)c2ccc(Cl)cc2)CC1)NC1CCC1 (stereo not drawn) [Example 128] | 86.1 | 6.49 | > 500 | 32 | 28 | 36 | 40 | showed strong activity of suppressing the late allergic reaction |
| NS(=O)(=O)CCCCCCCCCCN1CCN(C(c2ccccc2)c2ccc(Cl)cc2)CC1 (stereo not drawn) [Example 104] | 86.7 | 5.17 | > 500 | – | – | – | – | – |
| NS(=O)(=O)CCCCCCCCN1CCN(C(c2ccc(F)cc2)c2ccccn2)CC1 (stereo not drawn) [Example 13] | 73.8 | 6.49 | > 500 | – | – | – | – | – |
| O=S(=O)(CCCCCCN1CCN(C(c2ccc(F)cc2)c2ccccn2)CC1)NC1CCCC1 (stereo not drawn) [Example 61] | 89.7 | 6.51 | > 500 | 5 | – | 37 | 44.4 | showed strong activity of suppressing the late allergic reaction |
| O=S(=O)(CCCCCCN1CCN(C(c2ccccc2)c2cccc(Cl)c2)CC1)NC1CC1 (stereo not drawn) [Example 120] | 93.4 | 6.15 | > 500 | 26.1 | 56.5 | 7.1 | 25 | showed strong activity of suppressing the late allergic reaction |
| CCNS(=O)(=O)CCCCCCCCN1CCN(C(c2ccccc2)c2ccc(Cl)cc2)CC1 (stereo not drawn) [Example 108] | 82.2 | 6.17 | > 500 | – | – | – | – | – |
| O=S(=O)(CCCCCCN1CCN(C(c2ccccc2)c2ccc(Cl)cc2)CC1)NC1CCCC1 (stereo not drawn) [Example 59] | 96.4 | 5.54 | > 500 | – | – | – | – | – |
| O=S(=O)(CCCCCCN1CCN(C(c2ccccc2)c2ccc(Cl)cc2)CC1)NC1CC1 (stereo not drawn) [Example 54] | 89.2 | 6.38 | > 500 | 19 | 52.4 | 37 | 51.9 | showed strong activity of suppressing the late allergic reaction |
| CNS(=O)(=O)CCCCCCN1CCN(C(c2ccccc2)c2ccc(Cl)cc2)CC1 (stereo not drawn) [Example 21] | 89.7 | 6.29 | > 500 | – | – | – | – | – |
| CC(C)NS(=O)(=O)CCCCCN1CCN(C(c2ccc(F)cc2)c2ccccn2)CC1 (stereo not drawn) [Example 45] | 84 | 6.13 | > 500 | – | – | – | – | – |
| CCNS(=O)(=O)CCCCCN1CCN(C(c2ccc(F)cc2)c2ccccn2)CC1 (stereo not drawn) [Example 31] | 87.2 | 6.11 | > 500 | – | – | – | – | – |
| O=S(=O)(CCCCCCCN1CCN(C(c2ccccc2)c2ccc(Cl)cc2)CC1)NC1CC1 (stereo not drawn) [Example 115] | 73.2 | 6.10 | > 500 | – | – | – | – | – |
| O=S(=O)(CCCCCCCCN1CCN(C(c2ccccc2)c2ccc(Cl)cc2)CC1)NC1CC1 (stereo not drawn) [Example 116] | 70.2 | 6.92 | > 500 | – | – | – | – | – |
| CCNS(=O)(=O)CCCCCCN1CCN(C(c2ccc(F)cc2)c2ccccn2)CC1 (stereo not drawn) [Example 32] | 86.8 | 6.08 | > 500 | – | – | – | – | – |
| CN(C)S(=O)(=O)CCCCCCN1CCN(C(c2ccccc2)c2ccccn2)CC1 (stereo not drawn) [Example 67] | 84.1 | 6.38 | > 500 | – | – | – | – | – |
| CNS(=O)(=O)CCCCCCN1CCN(C(c2ccc(F)cc2)c2ccccn2)CC1 (stereo not drawn) [Example 26] | 71 | 6.52 | > 500 | – | – | – | – | – |

| Structure (SMILES) | inhibition in vivo at 10 mg/kg [1] [%] | pEC50 [2] | mouse acute toxicity (lethal dose) (male ICR mice) [mg/kg] | inhibition in vivo at 0.1 mg/kg [3, 4] [%] | inhibition in vivo at 1 mg/kg [3, 4] [%] | inhibition in vivo at 0.1 mg/kg [3, 5] [%] | inhibition in vivo at 1 mg/kg [3, 5] [%] | suppression of the late allergic reaction (in words) [3] |
| --- | --- | --- | --- | --- | --- | --- | --- | --- |
| CC(C)NS(=O)(=O)CCCCCCN1CCN(C(c2ccccc2)c2ccc(Cl)cc2)CC1 (stereo not drawn) [Example 43] | 86.5 | 6.16 | > 500 | – | – | – | – | – |
| O=S(=O)(CCCCCCN1CCN(C(c2ccccc2)c2ccc(F)cc2)CC1)NC1CC1 (stereo not drawn) [Example 124] | 88.4 | 6.70 | > 500 | – | – | – | – | – |
| CN(C)S(=O)(=O)CCCCCCN1CCN(C(c2ccncc2)c2ccc(Cl)cc2)CC1 (stereo not drawn) [Example 66] | 82.8 | 6.38 | > 500 | – | – | – | – | – |
| O=S(=O)(CCCCCCCN1CCN(C(c2ccccc2)c2ccc(Cl)cc2)CC1)NC1CCCC1 (stereo not drawn) [Example 137] | 75.8 | 5.66 | > 500 | – | – | – | – | – |
| CN(C)S(=O)(=O)CCCCCCCN1CCN(C(c2ccccc2)c2ccc(Cl)cc2)CC1 (stereo not drawn) [Example 150] | 89.1 | 6.46 | > 500 | – | – | – | – | – |
| CCCNS(=O)(=O)CCCCCCCCCCN1CCN(C(c2ccc(F)cc2)c2ccccn2)CC1 (stereo not drawn) [Example 42] | 80.2 | 6.48 | > 500 | – | – | – | – | – |
| COc1cc(NS(=O)(=O)CCCCCCN2CCN(C(c3ccccc3)c3ccccc3)CC2)cc(OC)c1OC [Example 99] | 72.1 | 5.89 | > 500 | – | – | – | – | – |
| CCCNS(=O)(=O)CCCCCCN1CCN(C(c2ccc(F)cc2)c2ccccn2)CC1 (stereo not drawn) [Example 39] | 83.8 | 6.09 | > 500 | – | – | – | – | – |
| NS(=O)(=O)CCCCCCN1CCN(C(c2ccccc2)c2ccc(Cl)cc2)CC1 (stereo not drawn) [Example 3] | 95.2 | 6.12 | > 500 | – | – | – | – | – |
| O=S(=O)(CCCCCCN1CCN(C(c2ccccc2)c2ccc(Cl)cc2)CC1)NC1CCCCC1 (stereo not drawn) [Example 143] | 87.8 | 5.55 | > 500 | 24 | 40 | 4 | 28 | showed strong activity of suppressing the late allergic reaction |
| CN(C)S(=O)(=O)CCCCCCN1CCN(C(c2ccc(F)cc2)c2ccc(F)cc2)CC1 [Example 65] | 74.7 | 6.37 | > 500 | – | – | – | – | – |
| O=S(=O)(CCCCCCCN1CCN(C(c2ccccc2)c2ccc(Cl)cc2)CC1)NC1CCC1 (stereo not drawn) [Example 129] | 92.2 | 5.74 | > 500 | – | – | – | – | – |
| CCNS(=O)(=O)CCCCCCN1CCN(C(c2ccccc2)c2ccc(Cl)cc2)CC1 (stereo not drawn) [Example 29] | 95.7 | 6.12 | > 500 | – | – | – | – | – |
| NS(=O)(=O)CCCCCCCCN1CCN(C(c2ccccc2)c2ccc(Cl)cc2)CC1 (stereo not drawn) [Example 4] | 89 | 6.19 | > 500 | – | – | – | – | – |
| CC(C)NS(=O)(=O)CCCCCCCCN1CCN(C(c2ccc(F)cc2)c2ccccn2)CC1 (stereo not drawn) [Example 48] | 83.8 | 6.46 | > 500 | – | – | – | – | – |
